Measured values: ChEMBL document CHEMBL4680224, “Discovery of pyridine tetrahydroisoquinoline thiohydantoin derivatives with low blood-brain barrier penetration as the androgen receptor antagonists” (Eur J Med Chem, 2020)
Activity calls are given as the source filed them. The rule behind the calls is not given here.

What was measured:
[1] = system: LNCaP; test: Antiproliferative activity against human LNCaP cells assessed as reduction in cel viability after 72 hrs by MTT assay; assay type: functional, cell-based
[2] = system: DU-145; test: Antiproliferative activity against human DU-145 cells assessed as reduction in cel viability after 72 hrs by MTT assay; assay type: functional, cell-based; details: DU-145, 72 h
[3] = target: T1, Androgen receptor (Homo sapiens, UniProt P10275); test: Antagonist activity at Androgen receptor (unknown origin) expressed in COS7 cells by dual luciferase reporter gene assay relative to control; assay type: cell-based
T1 sequence (P10275 whole entry): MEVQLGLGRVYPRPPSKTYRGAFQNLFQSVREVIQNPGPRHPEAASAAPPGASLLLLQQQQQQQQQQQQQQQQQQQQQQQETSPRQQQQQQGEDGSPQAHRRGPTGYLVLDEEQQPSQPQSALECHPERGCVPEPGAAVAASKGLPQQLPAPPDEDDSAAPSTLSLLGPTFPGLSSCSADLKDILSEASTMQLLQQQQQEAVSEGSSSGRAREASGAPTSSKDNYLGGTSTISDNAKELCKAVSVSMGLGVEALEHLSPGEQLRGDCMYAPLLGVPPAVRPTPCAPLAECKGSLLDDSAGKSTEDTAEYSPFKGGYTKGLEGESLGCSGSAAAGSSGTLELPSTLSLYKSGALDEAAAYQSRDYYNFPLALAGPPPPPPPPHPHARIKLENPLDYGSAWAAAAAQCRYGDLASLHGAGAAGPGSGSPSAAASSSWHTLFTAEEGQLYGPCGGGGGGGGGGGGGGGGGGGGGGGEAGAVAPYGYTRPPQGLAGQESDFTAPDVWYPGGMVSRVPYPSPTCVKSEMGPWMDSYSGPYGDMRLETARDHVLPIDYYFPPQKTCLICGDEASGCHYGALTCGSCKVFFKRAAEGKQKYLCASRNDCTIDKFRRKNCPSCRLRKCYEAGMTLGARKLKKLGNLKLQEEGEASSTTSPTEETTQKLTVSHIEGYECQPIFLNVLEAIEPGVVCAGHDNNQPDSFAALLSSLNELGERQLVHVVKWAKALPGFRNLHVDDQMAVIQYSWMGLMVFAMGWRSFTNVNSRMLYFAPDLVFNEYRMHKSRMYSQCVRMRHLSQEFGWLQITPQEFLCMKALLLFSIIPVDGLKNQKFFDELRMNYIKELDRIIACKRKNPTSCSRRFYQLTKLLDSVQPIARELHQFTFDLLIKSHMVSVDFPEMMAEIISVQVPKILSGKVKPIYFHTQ

[4] = system: LNCaP; test: Antitumour activity against human LNCaP cells xenografted in po dosed BALB/c nude mouse assessed as reduction in tumour volume administered daily for 21 days; assay type: functional, organism-based; details: dose 15-45 mg/kg, time 21.0 day
[5] = system: LNCaP; test: Antitumour activity against human LNCaP cells xenografted in po dosed BALB/c nude mouse assessed as reduction in tumour size administered daily for 21 days; assay type: functional, organism-based; details: dose 15-45 mg/kg, time 21.0 day
[6] = system: LNCaP; test: Antitumour activity against human LNCaP cells xenografted in po dosed BALB/c nude mouse assessed as reduction in tumour weight administered daily for 21 days; assay type: functional, organism-based; details: dose 15-45 mg/kg, time 21.0 day
[7] = Toxicity in BALB/c mouse xenografted with LNCaP cells assessed as reduction in body weight at 15 to 45 mg/kg, po administered daily for 21 days; assay type: organism-based; details: in vivo, 504 h, dose 15-45 mg/kg, time 21 day
[8] = system: LNCaP; test: Antitumour activity against human LNCaP cells xenografted in BALB/c nude mouse assessed as reduction in tumour weight at 15 mg/kg, po administered daily for 21 days relative to control; assay type: functional; details: 504 h, time 21 day, read-out: TGI
[9] = system: LNCaP; test: Antitumour activity against human LNCaP cells xenografted in BALB/c nude mouse assessed as reduction in tumour weight at 30 mg/kg, po administered daily for 21 days relative to control; assay type: functional; details: 504 h, time 21 day, read-out: TGI
[10] = system: LNCaP; test: Antitumour activity against human LNCaP cells xenografted in BALB/c nude mouse assessed as reduction in tumour weight at 45 mg/kg, po administered daily for 21 days relative to control; assay type: functional; details: Mus musculus, LNCaP, po, 504 h, time 21 day, read-out: TGI
[11] = Toxicity in BALB/c mouse xenografted with human LNCaP cells assessed as pathological changes in heart at 15 to 45 mg/kg, po administered daily for 21 days H and E staining based optical microscopic method; assay type: organism-based; details: in vivo, 504 h, dose 15-45 mg/kg, time 21 day
[12] = system: LNCaP; test: Antitumour activity against human LNCaP cells xenografted in BALB/c nude mouse assessed as decrease in PSA level at 45 mg/kg, po administered daily for 21 days by ELISA relative to control; assay type: functional; design: scale not given: the % may be the effect or the level left; details: time 21 day
[13] = system: LNCaP; test: Antitumour activity against human LNCaP cells xenografted in BALB/c nude mouse assessed as decrease in PSA level at 30 mg/kg, po administered daily for 21 days by ELISA relative to control; assay type: functional; design: scale not given: the % may be the effect or the level left; details: time 21 day
[14] = system: LNCaP; test: Antitumour activity against human LNCaP cells xenografted in BALB/c nude mouse assessed as decrease in PSA level at 15 mg/kg, po administered daily for 21 days by ELISA relative to control; assay type: functional; design: scale not given: the % may be the effect or the level left; details: time 21 day
[15] = system: LNCaP; test: Antitumour activity against human LNCaP cells xenografted in po dosed BALB/c nude mouse assessed as decrease in PSA level administered daily for 21 days by ELISA; assay type: functional, organism-based; details: dose 15-45 mg/kg, time 21.0 day
[16] = system: LNCaP; test: Antitumour activity against human LNCaP cells xenografted in BALB/c nude mouse assessed as increase in karyorrhexis at 15 to 45 mg/kg, po administered daily for 21 days by H and E staining based optical microscopic method; assay type: functional, organism-based; details: dose 15-45 mg/kg, time 21.0 day
[17] = system: LNCaP; test: Antitumour activity against human LNCaP cells xenografted in BALB/c nude mouse assessed as increase in necrosis at 15 to 45 mg/kg, po administered daily for 21 days by H and E staining based optical microscopic method; assay type: functional, organism-based; details: dose 15-45 mg/kg, time 21.0 day
[18] = Toxicity in BALB/c mouse xenografted with human LNCaP cells assessed as pathological changes in kidney at 15 to 45 mg/kg, po administered daily for 21 days H and E staining based optical microscopic method; assay type: organism-based; details: in vivo, 504 h, dose 15-45 mg/kg, time 21 day
[19] = Toxicity in BALB/c mouse xenografted with human LNCaP cells assessed as pathological changes in liver at 15 to 45 mg/kg, po administered daily for 21 days H and E staining based optical microscopic method; assay type: organism-based; details: in vivo, 504 h, dose 15-45 mg/kg, time 21 day
[20] = Toxicity in BALB/c mouse xenografted with human LNCaP cells assessed as pathological changes in lung at 15 to 45 mg/kg, po administered daily for 21 days H and E staining based optical microscopic method; assay type: organism-based; details: in vivo, 504 h, dose 15-45 mg/kg, time 21 day
[21] = Toxicity in BALB/c mouse xenografted with human LNCaP cells assessed as pathological changes in spleen at 15 to 45 mg/kg, po administered daily for 21 days H and E staining based optical microscopic method; assay type: organism-based; details: in vivo, 504 h, dose 15-45 mg/kg, time 21 day
[22] = Toxicity in ICR mouse assessed as reduction in body weight at 100 to 1000 mg/kg, po administered for 14 days; assay type: organism-based; details: in vivo, 336 h, dose 100-1000 mg/kg, time 14 day
[23] = Toxicity in ICR mouse assessed as pathological changes in seminal vesicle at 100 to 1000 mg/kg, po administered for 14 days by H and E staining based optical microscopic method; assay type: organism-based; details: in vivo, 336 h, dose 100-1000 mg/kg, time 14 day
[24] = Toxicity in ICR mouse assessed as pathological changes in prostate […] at 100 to 1000 mg/kg, po administered for 14 days by H and E staining based optical microscopic method; assay type: organism-based; details: in vivo, 336 h, dose 100-1000 mg/kg, time 14 day
[25] = Half life in human liver microsomes at 10 uM; assay type: ADME, Microsome
[26] = Stability in human liver microsomes assessed as parent compound remaining at 10 uM; assay type: ADME, Microsome; details: read-out: Stabilty
[27] = in vitro; details: human, liver microsomes
Description: Intrinsic clearance in human liver microsomes at 10 uM

## CCOC(=O)Nc1cc2c(cc1F)CC1C(=O)N(c3cnc(C#N)c(C(F)(F)F)c3)C(=S)N1C2 (configuration not stated)
[1]
  IC50: 14.8 µM
[2]
  IC50: 94.3 µM
[3]
  IC50: 6.17 µM
[4]
  Activity: Dose-dependent effect
[5]
  Activity: Dose-dependent effect
[6]
  Activity: Dose-dependent effect
[7]
  Activity: Non-Toxic
[8]
  inhibition in vivo at 15 mg/kg: 12%
[9]
  inhibition in vivo at 30 mg/kg: 39%
[10]
  inhibition in vivo at 45 mg/kg: 79%
[11]
  Activity: Non-Toxic
[12]
  Activity: 73%
[13]
  Activity: 43%
[14]
  Activity: 24%
[15]
  Activity: Dose-dependent effect
[16]
  Activity: Active
[17]
  Activity: Active
[18]
  Activity: Non-Toxic
[19]
  Activity: Non-Toxic
[20]
  Activity: Non-Toxic
[21]
  Activity: Non-Toxic
[22]
  Activity: Non-Toxic
[23]
  Activity: Non-Toxic
[24]
  Activity: Non-Toxic
[25]
  half-life at 10 µM: 4.36 h
[26]
  remaining at 10 µM: 87.1%
[27]
  CLint scaled at 10 µM: 7.86 mL/min/kg
